Source: patent US20230212123A1, “Pyridine Inhibitors of Glucosylceramide Synthase and Therapeutic Methods Using the Same” (THE REGENTS OF THE UNIVERSITY OF MICHIGAN, priority 2020, published 2023)

Columns and labels:
[1] = biological target: T1, GCS in MDCKII cells (Canis lupus familiaris, UniProt A0A8I3MXG6); experiment: GCS inhibition in MDCKII cells (glucosylceramide content after 24 h); format: cell-based, canine; conditions: 24 hours exposure, glucosylceramide level
T1 construct: whole cellular lipids of wild type MDCKII cells were extracted; endogenous in cells; host or cells: wild type MDCKII cells
T1 sequence (A0A8I3MXG6 1-394): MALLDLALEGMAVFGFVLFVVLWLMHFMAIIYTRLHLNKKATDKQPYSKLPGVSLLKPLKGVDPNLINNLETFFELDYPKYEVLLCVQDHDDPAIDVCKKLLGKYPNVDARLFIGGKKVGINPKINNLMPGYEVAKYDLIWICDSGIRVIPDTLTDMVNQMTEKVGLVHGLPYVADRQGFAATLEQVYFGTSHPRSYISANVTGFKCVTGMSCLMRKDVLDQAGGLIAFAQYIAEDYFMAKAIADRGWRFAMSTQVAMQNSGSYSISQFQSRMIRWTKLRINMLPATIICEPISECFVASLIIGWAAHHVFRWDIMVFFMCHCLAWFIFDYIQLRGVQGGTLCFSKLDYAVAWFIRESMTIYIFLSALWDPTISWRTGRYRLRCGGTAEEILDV
Experimental: GCS Inhibition in MDCKII Cells (MDCKII IC50, Table 1)
MDCKII cells were routinely maintained in medium consisting of Opti-MEM/F12 (1:1), 5% FBS, 100 U/mL of penicillin, 100 µg/mL streptomycin and 200 mM L-glutamine. MDCKII cells were newly thawed from frozen ampules every two months.
Stock solutions of water-insoluble glycosphingolipid inhibitors (100 mM) were prepared by dissolving each inhibitor into 100% ethanol as previously described (3). The inhibitor-ethanol solutions then were diluted 50X into 2 mM delipidated bovine serum albumin-phosphate buffered saline solution to make water-soluble glycosphingolipid inhibitor-bovine serum albumin complexes. The inhibitor-bovine serum album complexes were sterile-filtered and stored at -20° C. Prior to use, portions of the inhibitor-bovine serum albumin complexes were further diluted with Opti-F12 to make treatment solutions. Equal amounts of bovine serum albumin and ethanol were added into the control cultures. Cells (5 x 10^5) were seeded into 10-cm culture dishes containing 10 ml of Opti-F12 with 5% FBS. After 24 hours, the medium was replaced with fresh serum-free Opti-F12 medium, and cells were exposed to candidate GCS inhibitors at concentrations of 0, 1, 3, 10, 30, 100 and 300 nM for 24 hours.
Following inhibitor treatment, whole cellular lipids of wild type MDCKII cells were extracted as previously described in detail (10). Briefly, cells were washed with ice-cold phosphate buffered saline, fixed by methanol, and collected with rubber scraper. Chloroform was then added to yield a theoretical ratio of chloroform:methanol:water at 1:2:0.8 (v/v/v) to form a mono-phase. Cell debris and proteins were removed by centrifugation at 2200 x g for 30 min. The supernatants were portioned by adding chloroform and 0.9% NaCl. The lower organic phases containing neutral glycosphingolipids lipids were washed with methanol and 0.9% NaCl, and subjected to base- and acid-hydrolysis (10). A portion of purified glycosphingolipids normalized to 100 nmol of total phospholipids was analyzed by high performance thin layer chromatography. The thin layer chromatography separations were processed twice. The plate pretreated with 1% sodium borate was first developed in a solvent system consisting of chloroform/methanol (98/2, v/v). After air drying, the plate was then developed in a solvent system containing chloroform/methanol/water (70/30/4, v/v/v). The levels of glucosylceramide were detected by charring with 8% cupric sulfate in 8% phosphoric acid, and quantified by densitometric scanning using ImageJ, NIH Image. Image data was analyzed, and the IC50 of each inhibitor was calculated using GraphPad Prism (version 5.03).

[2] = biological target: T2, glucosylceramide synthase (GCS) (Canis lupus familiaris, UniProt A0A8I3MXG6); experiment: GCS inhibition in MDCK cell homogenates (Lysate IC50); format: biochemical, canine; conditions: MDCK cell homogenate
T2 construct: endogenous in cells; host or cells: MDCK cell homogenate
T2 sequence (A0A8I3MXG6 1-394): T1 sequence (A0A8I3MXG6 1-394)
Experimental: GCS Inhibition in MDCK Cell Homogenates (Lysate IC50, Table 1)
IC50 values for new compounds of the invention were determined as reported in Shayman J. A., Abe A. 2000. Glucosylceramide synthase: assay and properties. Methods Enzymol.311: 42-49.

IC50 [1] [nM] | IC50 [2] [nM] | Compound
6.5 | 249 | O=C(CC1Cc2ccccc2C1)N[C@H](CN1CCCC1)[C@H](O)c1ccc(OC(F)(F)F)cn1 (racemic) [Example 5, 2-(2,3-dihydro-1H-inden-2-yl)-N-((1S,2R)-1-hydroxy-3-(pyrrolidin-1-yl)-1-(5-(trifluoromethoxy)pyridin-2-yl)propan-2-yl)acetamide]
6.8 | 24.8 | COc1ccc(C(O)[C@@H](CN2CCCC2)NC(=O)CC2Cc3ccccc3C2)nc1 (stereo in doubt) [Example 2, 2-(2,3-dihydro-1H-inden-2-yl)-N-((1R,2R)-1-hydroxy-1-(5-methoxypyridin-2-yl)-3-(pyrrolidin-1-yl)propan-2-yl)acetamide]
– | 16.1 | O=C(CC1Cc2ccccc2C1)N[C@H](CN1CCCC1)[C@H](O)c1cc(Cl)ccn1 (stereo in doubt) [Example 23, (+/-)-N-(1-(4-chloropyridin-2-yl)-1-hydroxy-3-(pyrrolidin-1-yl)propan-2-yl)-2-(2,3-dihydro-1H-inden-2-yl)acetamide]
– | > 2000 | O=C(CC1Cc2ccccc2C1)N[C@@H](CN1CCCC1)[C@@H](O)c1cc(Cl)ccn1 (stereo in doubt) [Example 26]
30.5 | 198 | COc1cccc([C@@H](O)[C@@H](CN2CCCC2)NC(=O)CC2Cc3ccccc3C2)n1 [Example 3, 2-(2,3-dihydro-1H-inden-2-yl)-N-((1S,2R)-1-hydroxy-1-(6-methoxypyridin-2-yl)-3-(pyrrolidin-1-yl)propan-2-yl)acetamide]
16.9 | 152 | O=C(CC1Cc2ccccc2C1)N[C@H](CN1CCCC1)[C@H](O)c1ccccn1 [Example 4, 2-(2,3-dihydro-1H-inden-2-yl)-N-((1S,2R)-1-hydroxy-1-(pyridin-2-yl)-3-(pyrrolidin-1-yl)propan-2-yl)acetamide]
2.4 | 21.7 | O=C(CC1Cc2ccccc2C1)N[C@H](CN1CCCC1)[C@H](O)c1ccc(OCC(F)(F)F)cn1 [Example 6, 2-(2,3-dihydro-1H-inden-2-yl)-N-((1S,2R)-1-hydroxy-3-(pyrrolidin-1-yl)-1-(5-(2,2,2-trifluoroethoxy)pyridin-2-yl)propan-2-yl)acetamide]
94.6 | 56 | COc1cc([C@@H](O)[C@@H](CN2CCCC2)NC(=O)CC2Cc3ccccc3C2)ccn1 [Example 8, 2-(2,3-dihydro-1H-inden-2-yl)-N-((1R,2R)-1-hydroxy-1-(2-methoxypyridin-4-yl)-3-(pyrrolidin-1-yl)propan-2-yl)acetamide]
> 1000 | > 5000 | COc1cncc([C@@H](O)[C@@H](CN2CCCC2)NC(=O)CC2Cc3ccccc3C2)c1 [Example 9, 2-(2,3-dihydro-1H-inden-2-yl)-N-((1R,2R)-1-hydroxy-1-(5-methoxypyridin-3-yl)-3-(pyrrolidin-1-yl)propan-2-yl)acetamide]
15.8 | 37.4 | COc1ccc([C@@H](O)[C@@H](CN2CCCC2)N(C)C(=O)CC2Cc3ccccc3C2)nc1 [Example 10]
– | > 2000 | COc1ccc([C@H](O)[C@H](CN2CCCC2)NC(=O)CC2Cc3ccccc3C2)nc1 [Example 11, 2-(2,3-dihydro-1H-inden-2-yl)-N-((1R,2S)-1-hydroxy-1-(5-methoxypyridin-2-yl)-3-(pyrrolidin-1-yl)propan-2-yl)acetamide]
79.5 | 24900 | COc1ccnc([C@@H](O)[C@@H](CN2CCCC2)NC(=O)CC2Cc3ccccc3C2)c1 [Example 12, 2-(2,3-dihydro-1H-inden-2-yl)-N-((1S,2R)-1-hydroxy-1-(4-methoxypyridin-2-yl)-3-(pyrrolidin-1-yl)propan-2-yl)acetamide]
594 | 182 | O=C(CC1Cc2ccccc2C1)N[C@H](CN1CCCC1)[C@H](O)c1cccnc1 [Example 13, 2-(2,3-dihydro-1H-inden-2-yl)-N-((1R,2R)-1-hydroxy-1-(pyridin-3-yl)-3-(pyrrolidin-1-yl)propan-2-yl)acetamide]
444 | > 2000 | COc1cccnc1[C@@H](O)[C@@H](CN1CCCC1)NC(=O)CC1Cc2ccccc2C1 [Example 14, 2-(2,3-dihydro-1H-inden-2-yl)-N-((1S,2R)-1-hydroxy-1-(3-methoxypyridin-2-yl)-3-(pyrrolidin-1-yl)propan-2-yl)acetamide]
9.3 | 21.3 | COc1ccc([C@@H](O)[C@@H](CN2CC3CC3C2)NC(=O)CC2Cc3ccccc3C2)nc1 (stereo partly drawn) [Example 15, N-((1S,2R)-3-(3-azabicyclo[3.1.0]hexan-3-yl)-1-hydroxy-1-(5-methoxypyridin-2-yl)propan-2-yl)-2-(2,3-dihydro-1H-inden-2-yl)acetamide]
> 1000 | > 2000 | COc1ccc([C@@H](O)[C@@H](CN2CCC(C)(C)C2)NC(=O)CC2Cc3ccccc3C2)nc1 [Example 16, 2-(2,3-dihydro-1H-inden-2-yl)-N-((1S,2R)-3-(3,3-dimethylpyrrolidin-1-yl)-1-hydroxy-1-(5-methoxypyridin-2-yl)propan-2-yl)acetamide]
13.9 | 82 | COc1ccc([C@@H](O)[C@@H](CN2CC[C@@H](F)C2)NC(=O)CC2Cc3ccccc3C2)nc1 [Example 19, 2-(2,3-dihydro-1H-inden-2-yl)-N-((1S,2R)-3-((R)-3-fluoropyrrolidin-1-yl)-1-hydroxy-1-(5-methoxypyridin-2-yl)propan-2-yl)acetamide]
61 | 131 | O=C(CC1Cc2ccccc2C1)N[C@H](CN1CCCC1)[C@H](O)c1cccc(Cl)n1 [Example 20, N-((1S,2R)-1-(6-chloropyridin-2-yl)-1-hydroxy-3-(pyrrolidin-1-yl)propan-2-yl)-2-(2,3-dihydro-1H-inden-2-yl)acetamide]
– | > 1000 | O=C(CC1Cc2ccccc2C1)N[C@@H](CN1CCCC1)[C@@H](O)c1ccc(OC(F)(F)F)cn1 [Example 22, 2-(2,3-dihydro-1H-inden-2-yl)-N-((1R,2S)-1-hydroxy-3-(pyrrolidin-1-yl)-1-(5-(trifluoromethoxy)pyridin-2-yl)propan-2-yl)acetamide]
66.6 | – | O=C(CC1Cc2ccccc2C1)N[C@H](CN1CCCC1)[C@H](O)c1ccnc(Cl)c1 [Example 27, N-((1R,2R)-1-(2-chloropyridin-4-yl)-1-hydroxy-3-(pyrrolidin-1-yl)propan-2-yl)-2-(2,3-dihydro-1H-inden-2-yl)acetamide]

Compound | IC50 [1] [nM] | IC50 [2] [nM]
2-(2,3-dihydro-1H-inden-2-yl)-N-((1R,2R)-1-hydroxy-1-(6-methoxypyridin-3-yl)-3-(pyrrolidin-1-yl)propan-2-yl)acetamide [Example 1] | > 1000 | > 1000
CC(C)(C)Oc1ccc([C@@H](O)[C@@H](CN2CCCC2)NC(=O)CC2Cc3ccccc3C2)nc1 [Example 7, N-((1S,2R)-1-(5-(tert-butoxy)pyridin-2-yl)-1-hydroxy-3-(pyrrolidin-1-yl)propan-2-yl)-2-(2,3-dihydro-1H-inden-2-yl)acetamide] | 7.9 | 16.3
CC(C)(C)Oc1ccc([C@H](O)[C@H](CN2CCCC2)NC(=O)CC2Cc3ccccc3C2)nc1 [Example 18, N-((1R,2S)-1-(5-(tert-butoxy)pyridin-2-yl)-1-hydroxy-3-(pyrrolidin-1-yl)propan-2-yl)-2-(2,3-dihydro-1H-inden-2-yl)acetamide] | – | > 2000
